In paper PMC12300381, “Synthesis, Biological Evaluation, and In Silico Characterization of Novel Imidazothiadiazole–Chalcone Hybrids as Multi-Target Enzyme Inhibitors” (Pharmaceuticals, 2025):

Tests used:
Format in all cases: biochemical
Conditions in all cases: for IC50: Table 2
hCA I = hCA I (Homo sapiens, UniProt P00915); experiment: hCA I esterase activity inhibition (Verpoorte method, p-nitrophenylacetate)
Protocol: (§1) The activities of the CA isoenzymes were measured in accordance with Verpoorte et al.’s previously described methodology. […] There was 400 µL of Tris–HCl buffer (pH 7.4), 360 µL of PNA (3.0 mM), 220 µL of H2O, and 20 µL of purified hCA isoenzyme in the reaction mixture. The identical cuvette was prepared without the enzyme in order to obtain a control measurement. The standard protein was bovine serum albumin.
(§2) To determine the IC50 values of the tested compounds, enzyme activity measurements were conducted at five to six different inhibitor concentrations. Percent activity values were calculated for each dose, taking into account the compounds’ molecular weights and dilution factors.
(§3) The IC50 study was completed prior to the Kᵢ determination. For the Kᵢ analysis, three selected concentrations of each inhibitor were used alongside a control (uninhibited) reaction.
(§4) Kᵢ values and standard deviations were calculated based on the type of inhibition (competitive or non-competitive), as inferred from the intersection pattern of the Lineweaver–Burk lines. These kinetic parameters allowed for further insight into the binding affinities and inhibition mechanisms of the compounds.

hCA II = hCA II (Homo sapiens, UniProt P00918); experiment: hCA II esterase activity inhibition (Verpoorte method, p-nitrophenylacetate)
Protocol: as §1, §2
The IC50 study was completed prior to the Kᵢ determination. For the Kᵢ analysis, three selected concentrations of each inhibitor were used alongside a control (uninhibited) reaction. Enzyme activity data were converted to 1/V values and plotted against 1/[S] to generate Lineweaver–Burk plots.
as §4

AChE = biological target: T1, AChE (Electrophorus electricus, UniProt O42275); experiment: biochemical
T1 construct: purchased Sigma-Aldrich Chemie, St. Louis, MO, USA C2888-500UN
Protocol: (§5) The previously published Ellman’s technique was used to measure the BChE and AChE activities. AChE (C2888-500UN) from Electrophorus electricus and BChE (C1057-1KU), extracted from equine serum, were both obtained from Sigma-Aldrich Chemie, St. Louis, MO, USA. The BChE/AChE activities were measured using 5,5′-dithiobis(2-nitrobenzoic acid) (DTNB) and butyrylthiocholine iodide (BChI)/[…] (AChI). In short, […] of the sample solutions with varying concentrations was dissolved in deionized water along with 100 µL of buffer (Tris–HCl, 1.0 M, pH 8.0). […] A fraction of DTNB (50 µL, 0.5 mM) was added following incubation. Finally, 50 µL of BChI/AChI (10/10 mM) was added to initiate the reaction. […] All enzymatic activity determination solutions, except AChE/BChE, were included in the negative control.
as §2, §3, §4

BChE = biological target: T2, BChE (Equus caballus, UniProt P81908); experiment: biochemical
T2 construct: BChE (C1057-1KU), extracted from equine serum; purchased Sigma-Aldrich Chemie, St. Louis, MO, USA C1057-1KU; host or cells: equine serum
Protocol: as §5, §2, §3, §4

Sequence of hCA I (P00915 whole entry): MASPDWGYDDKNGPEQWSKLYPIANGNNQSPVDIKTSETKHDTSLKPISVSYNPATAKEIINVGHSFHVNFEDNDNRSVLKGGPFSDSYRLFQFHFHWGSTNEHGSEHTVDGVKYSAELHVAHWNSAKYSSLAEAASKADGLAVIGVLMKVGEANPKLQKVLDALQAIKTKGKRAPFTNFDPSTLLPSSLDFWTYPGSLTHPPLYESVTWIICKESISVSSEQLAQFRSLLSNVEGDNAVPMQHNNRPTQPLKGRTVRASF
T2 sequence (P81908 whole entry): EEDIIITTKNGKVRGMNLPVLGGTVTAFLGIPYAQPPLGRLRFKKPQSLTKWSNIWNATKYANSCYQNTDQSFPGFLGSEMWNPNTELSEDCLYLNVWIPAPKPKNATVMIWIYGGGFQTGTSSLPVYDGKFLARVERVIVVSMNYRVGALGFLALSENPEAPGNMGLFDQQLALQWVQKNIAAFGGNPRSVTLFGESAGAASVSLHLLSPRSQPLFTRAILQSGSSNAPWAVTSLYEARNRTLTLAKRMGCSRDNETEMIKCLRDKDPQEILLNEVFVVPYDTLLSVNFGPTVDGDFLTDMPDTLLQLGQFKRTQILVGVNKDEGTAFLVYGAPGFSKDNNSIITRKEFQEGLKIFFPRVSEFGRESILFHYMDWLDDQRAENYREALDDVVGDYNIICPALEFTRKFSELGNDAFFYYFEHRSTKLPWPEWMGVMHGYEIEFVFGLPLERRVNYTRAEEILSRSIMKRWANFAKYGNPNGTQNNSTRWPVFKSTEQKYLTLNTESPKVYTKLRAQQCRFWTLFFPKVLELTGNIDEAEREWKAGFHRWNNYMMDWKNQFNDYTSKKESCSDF
T1 sequence (O42275 24-633): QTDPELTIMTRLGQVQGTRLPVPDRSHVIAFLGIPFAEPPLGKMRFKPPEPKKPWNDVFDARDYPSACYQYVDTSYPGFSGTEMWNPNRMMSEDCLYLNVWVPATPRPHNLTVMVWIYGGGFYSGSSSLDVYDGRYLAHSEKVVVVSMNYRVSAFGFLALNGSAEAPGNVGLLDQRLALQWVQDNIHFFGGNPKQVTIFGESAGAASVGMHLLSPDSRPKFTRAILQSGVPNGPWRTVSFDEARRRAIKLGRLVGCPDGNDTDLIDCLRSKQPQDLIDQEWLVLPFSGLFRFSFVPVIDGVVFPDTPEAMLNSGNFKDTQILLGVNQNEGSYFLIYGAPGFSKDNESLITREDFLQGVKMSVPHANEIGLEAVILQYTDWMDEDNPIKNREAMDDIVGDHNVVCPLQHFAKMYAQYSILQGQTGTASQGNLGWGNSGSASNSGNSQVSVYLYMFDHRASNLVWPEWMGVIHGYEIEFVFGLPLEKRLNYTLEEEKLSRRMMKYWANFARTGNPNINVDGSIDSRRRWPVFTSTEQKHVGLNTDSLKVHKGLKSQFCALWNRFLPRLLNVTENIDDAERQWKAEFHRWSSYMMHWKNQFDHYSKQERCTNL

SMILES	Ki (hCA I; Lineweaver-Burk plots) [µM]	IC50 (hCA I) [µM]	Ki (hCA II; Lineweaver-Burk plots) [µM]	IC50 (hCA II) [µM]	Ki (AChE; Lineweaver-Burk plots) [µM]	IC50 (AChE) [µM]	Ki (BChE; Lineweaver-Burk plots) [µM]	IC50 (BChE) [µM]	inhibition type, hCA II (hCA II; Lineweaver-Burk plots)	inhibition type, AChE (AChE; Lineweaver-Burk plots)	inhibition type, BChE (BChE; Lineweaver-Burk plots)	inhibition type, hCA I (hCA I; Lineweaver-Burk plots)
O=C(/C=C/c1c(-c2ccccc2)nc2sc(SCc3ccccc3)nn12)c1ccc(Cl)cc1 [8b, (E)-3-(2-(Benzylthio)-6-phenylimidazo[2,1-b][1,3,4]thiadiazol-5-yl)-1-(4-chlorophenyl)prop-2-en-1-one]	0.078 ± 0.00548	0.0644	0.0525 ± 0.00624	0.0493	0.00601 ± 0.00035	0.00677	0.0017 ± 0.0001	0.00195	–	–	–	–
COc1ccc(C(=O)/C=C/c2c(-c3ccccc3)nc3sc(SCc4ccc(F)cc4)nn23)cc1 [8c, (E)-3-(2-((4-Fluorobenzyl)thio)-6-phenylimidazo[2,1-b][1,3,4]thiadiazol-5-yl)-1-(4-methoxyphenyl)prop-2-en-1-one]	–	–	0.0361 ± 0.00536	0.0302	0.0114 ± 0.00102	0.013	0.00156 ± 6e-05	0.00203	non-competitive	–	–	–
COc1ccc(C(=O)/C=C/c2c(-c3ccccc3)nc3sc(SCc4ccccc4)nn23)cc1 [8a, (E)-3-(2-(Benzylthio)-6-phenylimidazo[2,1-b][1,3,4]thiadiazol-5-yl)-1-(4-methoxyphenyl)prop-2-en-1-one]	0.0812 ± 0.00436	0.0731	0.0493 ± 0.00503	0.0411	0.00386 ± 0.0002	0.00436	0.00101 ± 8e-05	0.00137	–	competitive	competitive	–
O=C(/C=C/c1c(-c2ccccc2)nc2sc(SCc3ccc(F)cc3)nn12)c1ccc(Cl)cc1 [8d, (E)-1-(4-Chlorophenyl)-3-(2-((4-fluorobenzyl)thio)-6-phenylimidazo[2,1-b][1,3,4]thiadiazol-5-yl)prop-2-en-1-one]	0.0451 ± 0.00391	0.0391	0.0396 ± 0.00491	0.0341	0.00798 ± 0.0006	0.0093	0.00178 ± 0.00012	0.00198	–	–	–	non-competitive
